In US20030139374A1 (University of Texas, published 2003):

Tests used:
[1] = Plasma coagulation parameters (TAT, ATIII) three days after treatment; type: in vivo, SCID mice; conditions: tTF alone, no endotoxin, three days after i.v. treatment
A20 lymphoma cells = assay: In vitro coagulation assay on A20 cells with B21-2/10H10 capture antibody; type: cell-based, mouse; conditions: for coagulation time: cells alone 190 seconds
immobilized tTF = target: T1, immobilized tTF (Homo sapiens, UniProt P13726); assay: Real time binding of tTF to immobilized tTF (surface plasmon resonance); conditions: tTF 30 μg/ml alone or preincubated with endotoxin or factor VIIa
T1 construct: Recombinant soluble Tissue Factor protein (amino acids 1-219) was extracted from the periplasmic space of transformed E. coli; His tag (only implied by the Ni-NTA purification); made in house; host or cells: E. coli (periplasmic secretion, vector pswc7)
T1 sequence (P13726 33-251): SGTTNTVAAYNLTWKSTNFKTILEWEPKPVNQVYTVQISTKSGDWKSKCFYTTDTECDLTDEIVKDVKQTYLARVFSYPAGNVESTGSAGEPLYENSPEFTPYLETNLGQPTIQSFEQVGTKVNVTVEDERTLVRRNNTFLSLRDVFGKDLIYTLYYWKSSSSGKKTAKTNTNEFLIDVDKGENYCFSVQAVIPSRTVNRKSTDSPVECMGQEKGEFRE

[2] = target: T2, Factor Xa generation (Factor VIIa, Factor X) (Homo sapiens, UniProt P08709); assay: Cell free two-stage coagulation assay; type: biochemical; conditions: FIG. 2
T2 construct: purchased Sigma
T2 sequence (P08709 61-212 limits assumed): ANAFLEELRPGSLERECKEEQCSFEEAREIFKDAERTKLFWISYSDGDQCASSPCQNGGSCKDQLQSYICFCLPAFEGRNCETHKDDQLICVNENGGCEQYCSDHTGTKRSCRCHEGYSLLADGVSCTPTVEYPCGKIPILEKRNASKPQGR
T2 sequence (P08709 213-466 limits assumed): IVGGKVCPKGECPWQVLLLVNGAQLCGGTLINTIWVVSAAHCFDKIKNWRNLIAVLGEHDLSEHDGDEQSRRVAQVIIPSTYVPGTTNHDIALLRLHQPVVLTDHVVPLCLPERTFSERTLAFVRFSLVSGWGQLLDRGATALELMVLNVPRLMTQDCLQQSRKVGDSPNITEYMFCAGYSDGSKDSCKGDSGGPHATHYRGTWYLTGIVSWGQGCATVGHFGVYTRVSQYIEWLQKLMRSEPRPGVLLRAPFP
T2 sequence (P13726 33-251 partner limits assumed): as the sequence (P13726 33-251) above
Protocol: In vitro coagulation activity was tested in a cell free two-stage coagulation assay. Negatively charged phospholipids at a final concentration of 50 μM (phosphatidylserine and phosphatidylcholine from Sigma, Taufkirchen, Germany) in calcium buffer (50 mM Tris pH=8.1, 150 mM NaCl, 2 mg/ml BSA, 5 mM Ca^++) were mixed with Factor VIIa (Sigma, Taufkirchen, Germany) at 10 nM and with samples or controls and incubated for five min at 37° C. Factor X was added to a final concentration of 30 nM and samples were incubated for 5 min at room temperature. Finally, the chromogenic substrate S2765 (Haemochrom, Essen, Germany) was added in a 100 mM EDTA solution. Factor Xa generation as a measure of Tissue Factor activity was determined by the increase in the absorption at 405 nm.
Negatively charged phospholipids at a final concentration of 50 μM (phosphatidylserine and phosphatidylcholine from Sigma, St. Louis, Mo.) in calcium buffer (50 mM Tris pH=8.1, 150 mM NaCl, 2 mg/ml BSA, 5 mM Ca^++) were mixed with Factor VIIa (Sigma, St. Louis, Mo.) at 10 nM and with samples or controls and incubated for five minutes at 37° C. Factor X (Sigma, St. Louis, Mo.) was added to a final concentration of 30 nM and samples were incubated for 5 minutes at room temperature. […] Factor Xa generation as a measure of tissue factor activity was determined by the increase in the absorption at 405 nm.

[3] = Clinical signs of toxicity and histology of normal organs after tTF and/or endotoxin; type: in vivo, SCID mice; conditions: for Symptoms: no endotoxin, tTF i.v.
Protocol: (§1) Treatment was initiated when subcutaneous tumors reached a size of 150 to 300 μl. Reagents were administered into the lateral tail vein.
(§2) Mice were closely observed after treatment for clinical signs of toxicity and clinical status was documented at defined time points (5 minutes. 10 minutes, 15 minutes, 30 minutes. 1 hour, 2 hours, 24 hours, 48 hours, 72 hours). Blood samples were taken from the tail vein at 1 hour, 2 hours and 24 hours to measure TNFα blood levels. Three days after treatment, the mice were anesthetized, blood samples were taken from the vena cava for coagulation tests, and an autopsy was performed to document any changes in gross pathology. Tumors, lymph node metastases and the major normal organs (heart, lung, brain, liver, kidney, colon, spleen, pancreas) were harvested and prepared for histological analysis.
(§3) Tissue samples harvested at the time of autopsy were fixed in 3% NBF (normal buffered formalin) and embedded in paraffin wax. Tissue blocs were cut, dewaxed and stained with hematoxilin and eosin (H&E). Tissue sections were analyzed on a light microscope by two independent investigators and histological findings were documented. Tumor sections with necrotic areas were scanned with a GS-700 imaging densitometer (Biorad, Hercules, Calif.) and areas of necrosis were calculated as % of total section area. Statistical Analysis was performed using SPSS software (SPSS Science Software, Erkrath, Germany) applying the Mann-Whitney-U-test for ungrouped data.

F9 sarcoma tumors = assay: F9 sarcoma mouse model, tumor tissue necrosis; type: in vivo, balb/c nude mice; conditions: endotoxin-free tTF 4 μg; three days after treatment
Protocol: 1×10^7 F9 sarcoma cells were injected subcutaneously into the right flank of balb/c nude mice. Subcutanous tumors were measured with a caliper in three perpendicular directions a, b, and c, and volumes calculated according to the formula V=π/6×a×b×c. Treatment was initiated when subcutaneous tumors reached a size of 150 to 300 μl.
Reagents were administered into the lateral tail vein.
Mice were closely observed after treatment for clinical signs of toxicity and clinical status was documented at defined time points. Three days after treatment, mice were sacrificed and tumors were harvested. Paraffin embedded tissues were stained with hematoxilin and eosin (H&E). Tissue sections were analyzed on a light microscope by two independent investigators and histological findings were documented. Tumor sections with necrotic areas were scanned with a GS-700 imaging densitometer (Biorad. Hercules, Calif.) and areas of necrosis were calculated as % of total section area.

bEnd 3 cells = assay: Cell bound coagulation assay on stimulated bEnd 3 endothelial cells (factor Xa generation); type: cell-based, murine; conditions: for Factor Xa generation due to Factor VIIa production: factor VII-only values subtracted
[4] = system: L540rec human Hodgkin's lymphoma tumors; assay: Tumor tissue necrosis in L540rec tumor-bearing SCID mice treated with tTF and/or endotoxin; type: in vivo
Protocol: For in vivo studies, a metastasizing mouse model for human Hodgkin's lymphoma was used. 1×10^7 L540rec cells were injected subcutaneously into the right flank of SCID mice resulting in a subcutaneous tumor with lymph node metastases in the regional lymph node stations. Subcutanous tumors were measured with a caliper in three perpendicular directions a, b, and c, and volumes calculated according to the formula V=π/6×a×b×c.
as §1, §2, §3

Substance: tTF: truncated (soluble) human Tissue Factor, extracellular domain, amino acid 1-219 of the mature protein
- TAT [1]: 25.4 ng/mL
- coagulation time (A20 lymphoma cells; 20,000 molecules per cell): 140 s
- coagulation time (A20 lymphoma cells; 300,000 molecules of tTF per cell): 40 s
- concentration at which plasma coagulated in 50 seconds (A20 lymphoma cells; bound via B21-2/10H10 to A20 cells): 3 nM
- time until fibrin strands were visible (A20 lymphoma cells; mouse plasma, tTF bound by B21-2/10H10, untreated cells 164 seconds): 36 s
- increase in coagulation-inducing potency (A20 lymphoma cells; presence of 0.1 nM Factor VIIa): 2-5 fold
- binding to immobilized tTF (immobilized tTF): did not bind
- coagulation activities before and after endotoxin removal (depyrogenation) [2]: the same
- histology of normal organs ([3]; light microscopy, three days after treatment): No histological abnormalities
- Symptoms ([3]; listed as TTF): None
- Symptoms ([3]; listed as endotoxin-free tTF): no clinical signs of toxicity
- average tumor tissue necrosis (F9 sarcoma tumors): 45%
- Factor Xa generation due to Factor VIIa production (bEnd 3 cells; stimulation with 0.5 μg/ml LPS (label LPS = medium only), 2 μg/ml factor VII and 0.01 μg/ml factor VIIa): 3.00 nkatS2222
- Factor Xa generation (bEnd 3 cells; stimulation with 0.5 μg/ml LPS, then incubation with labelled agent (label LPS = medium only), 0.5 μg/ml factor VIIa): 2.00 nkatS2222
- Factor Xa generation (bEnd 3 cells; stimulation with 10 μg/ml LPS, then incubation with labelled agent (label LPS = medium only), 0.5 μg/ml factor VIIa): 2.91 nkatS2222
- Factor Xa generation due to Factor VIIa production (bEnd 3 cells; stimulation with Medium, mix with 2 μg/ml factor VII and 0.01 μg/ml factor VIIa): 0.70 nkatS2222
- Factor Xa generation (bEnd 3 cells; stimulation with Medium, then incubation with the labelled agent (100 nM), mix with 0.5 μg/ml factor VIIa (VIIa not limiting)): 0.40 nkatS2222
- Factor Xa generation (bEnd 3 cells; stimulation with TNFα (500 U/ml), then incubation with labelled agent (label TNFα = medium only), 0.5 μg/ml factor VIIa): 0.67 nkatS2222
- Factor Xa generation due to Factor VIIa production (bEnd 3 cells; stimulation with TNFα (label TNFα = medium only), 2 μg/ml factor VII and 0.01 μg/ml factor VIIa): 1.91 nkatS2222
- % tumor necrosis ([4]; Table 2, tTF alone, no endotoxin, three days after i.v. treatment): 4%
- Percentage of tumor tissue necrosis ([4]; tTF alone (4 μg or 16 μg endotoxin-free tTF), no endotoxin): 0%
- anti-tumor effect ([4]; tTF alone at 100 μg): anti-tumor effects begin to appear
- anti-tumor effect ([4]; tTF alone at doses of from 4 μg to 16 μg): no anti-tumor effect
